These results are taken from patent US10099995B2 (Cole Research and Design, LLC, priority 2015, dated 2018).

Data set [1] concerns subscapular incision wound. Description: in vivo application of compositions to subscapular incisions in a rat model (Example 13). Details: species or system Sprague-Dawley rats. From the text: 12 Sprague-Dawley rats were placed randomly into 6 different groups, Study Groups 1-6, resulting in 2 animals per study group. Animals were anesthetized and the dorsal subscapular areas were shaved of hair with electric trimmers. Demarcations were made in a gently widening parallel approximately 1 cm subscapular and 2.2 cm in length. The left subscapular incision served as a control and the right subscapular incision served as the treatment site. The subscapular areas were incised with a #15 blade though the skin and subcutaneous panniculus carnosus muscle. The composition mixture corresponding to each group was then instilled into the right subscapular wound and the incision closed with 5-0 nylon interrupted fashion. Additional mixture was applied to the surface of the treatment site incision. Three biopsies were taken of normal skin at the time of incision and prior to any mixture instillation. Each site was then monitored and photographed daily. Wound gross morphology was noted daily. Sutures were removed and biopsies were taken at day 8 of the study (postoperative day #7) and sent to pathology for histology review. Histology was reviewed independently by two dermatopathologists.
A siRNA (MCP-1 inhibitor)

Data set [2] in a line: physchem. The procedure:
Two 4 mg samples of each compound were weighed.
The first sample was used to determine solubility. The sample was mixed with 1 mL of pH 7.4 phosphate buffered saline (PBS) buffer solution to produce a 4 mg/mL solution. The solution was vortexed and filtered to remove undissolved particles. The filtered solution was then diluted in pH 7.4 buffer in triplicate and stored in a refrigerator to reduce hydrolysis. The solutions were allowed to sit at room temperature for 5 minutes and then were analyzed by HPLC.
The second sample was used to prepare a calibration curve in ethanol. Calibrators were made based on expected solubility. After visually inspecting solubility in the buffer, the calibration curve was determined in order to include points above and below the expected concentration. The calibrators were stored in a refrigerator until ready for analysis by HPLC.

For data set [3] the following is noted: pH 7.4.
Data set [4] relates to wound. The note with it: applied before wound formation or up to 24 hours after; cited from earlier work.

In brackets after ≈: the same amount, converted by molar mass.

Consider `O=C(O)CCCC(=O)Oc1ccc(C=Cc2cc(OC(=O)CCCC(=O)O)cc(OC(=O)CCCC(=O)O)c2)cc1` [Resveratrol trihemiglutarate, resveratrol trihemiglutarate], for which the “differences in histology between control and treatment site” value in data set [1] (100 μM and 400 μM (either dosage), Groups 2 and 3) is “no differences”. Moreover, the “difference in treatment, alone, as compared to natural resveratrol alone” value in data set [1] (Groups 2 and 3) was “no appreciable difference”. In addition, the “evidence of trichogranuloma in histology specimens” value in data set [1] (histology) is on record as “mild”. Moreover, the Solubility (in general, the dissolved amount per volume that the medium holds) in data set [2] (pH 7.4) stood at 2060 µg/mL (≈ 3610 µM). For the same compound, in data set [3], the hydrolysis result was “slightly hydrolyzed”.
With `O=C(O)CCC(=O)Oc1ccc(C=Cc2cc(OC(=O)CCC(=O)O)cc(OC(=O)CCC(=O)O)c2)cc1` [Resveratrol trihemisuccinate, resveratrol trihemisuccinate], the Solubility in data set [2] (pH 7.4) was determined as 291 µg/mL (≈ 551 µM). The hydrolysis entry in data set [3] is “quick hydrolysis”.
As to `Oc1ccc(/C=C/c2cc(O)cc(O)c2)cc1` [Resveratrol, trans-3,4′,5-trihydroxystilbene], in data set [4], the scar result is “attenuated scar” and the time to re-epithelialization result is given as “up to 24 hours”. This compound also gave a Solubility in data set [2] (pH 7.4, aqueous buffer, thermodynamic from solid) of 4.8 µg/mL (≈ 21 µM).
